In the NIST ThermoML archive (doi:10.1016/j.jct.2008.10.007):
Numbers after ± are expanded uncertainties.

Legend:
[1] = xn = mol fraction of the nth substance listed; conditions: 298.15 K, 101 kPa, Liquid, Vibrating tube method
[2] = excess molar enthalpy (molar enthalpy of mixing); xn = mol fraction of the nth substance listed; conditions: 298.15 K, 101 kPa, Liquid, Calvet calorimetry

CCCOC(=O)CC [propyl propanoate] + ClCCCCCCCl
Conditions | mass density [kg/m3]
[1], x1 = 1 | 875.61 ± 0.23

CCCOC(=O)CCC [propyl butanoate] + ClCCCl
Conditions | excess molar enthalpy [kcal/mol] | mass density [kg/m3]
[1], x1 = 0.0329 | – | 1222.22 ± 7.7
[1], x1 = 0.065 | – | 1200.67 ± 7
[1], x1 = 0.1029 | – | 1176.79 ± 6.3
[1], x1 = 0.1385 | – | 1155.7 ± 5.7
[1], x1 = 0.1815 | – | 1132.09 ± 5
[1], x1 = 0.2225 | – | 1110.75 ± 4.5
[1], x1 = 0.2703 | – | 1087.77 ± 3.9
[1], x1 = 0.3191 | – | 1065.93 ± 3.4
[1], x1 = 0.3743 | – | 1043.05 ± 2.8
[1], x1 = 0.4285 | – | 1022.26 ± 2.4
[1], x1 = 0.4904 | – | 1000.19 ± 1.9
[1], x1 = 0.556 | – | 978.67 ± 1.6
[1], x1 = 0.628 | – | 956.91 ± 1.2
[1], x1 = 0.7087 | – | 934.51 ± 0.89
[1], x1 = 0.7989 | – | 911.8 ± 0.61
[1], x1 = 0.8938 | – | 890.06 ± 0.4
[1], x1 = 1 | – | 867.9 ± 0.23
[2], x1 = 0.0365 | -0.00837 ± 0.000239 | –
[2], x1 = 0.0999 | -0.0229 ± 0.000717 | –
[2], x1 = 0.1556 | -0.0363 ± 0.000956 | –
[2], x1 = 0.2176 | -0.0526 ± 0.0012 | –
[2], x1 = 0.281 | -0.0684 ± 0.00143 | –
[2], x1 = 0.343 | -0.0851 ± 0.00191 | –
[2], x1 = 0.3848 | -0.0951 ± 0.00215 | –
[2], x1 = 0.4055 | -0.098 ± 0.00215 | –
[2], x1 = 0.4534 | -0.106 ± 0.00239 | –
[2], x1 = 0.5266 | -0.109 ± 0.00239 | –
[2], x1 = 0.6369 | -0.0997 ± 0.00215 | –
[2], x1 = 0.7616 | -0.0746 ± 0.00167 | –
[2], x1 = 0.8961 | -0.0399 ± 0.000956 | –

CCCOC(=O)CC [propyl propanoate] + ClCCCCl
Conditions | mass density [kg/m3]
[1], x1 = 1 | 875.61 ± 0.23

CCCOC=O [propyl methanoate] + ClCCCl
Conditions | excess molar enthalpy [kcal/mol] | mass density [kg/m3]
[1], x1 = 0.0502 | – | 1224.05 ± 7.8
[1], x1 = 0.0994 | – | 1203.36 ± 7.2
[1], x1 = 0.1495 | – | 1182.95 ± 6.7
[1], x1 = 0.2004 | – | 1162.75 ± 6.2
[1], x1 = 0.2543 | – | 1141.88 ± 5.7
[1], x1 = 0.308 | – | 1121.58 ± 5.2
[1], x1 = 0.3635 | – | 1101.24 ± 4.8
[1], x1 = 0.4207 | – | 1080.82 ± 4.3
[1], x1 = 0.4795 | – | 1060.31 ± 3.9
[1], x1 = 0.5379 | – | 1040.49 ± 3.5
[1], x1 = 0.599 | – | 1020.32 ± 3.2
[1], x1 = 0.6634 | – | 999.69 ± 2.9
[1], x1 = 0.7281 | – | 979.46 ± 2.5
[1], x1 = 0.7928 | – | 959.73 ± 2.3
[1], x1 = 0.8612 | – | 939.48 ± 2
[1], x1 = 1 | – | 899.81 ± 1.6
[2], x1 = 0.074 | -0.00956 ± 0.000239 | –
[2], x1 = 0.1687 | -0.021 ± 0.000478 | –
[2], x1 = 0.2733 | -0.0368 ± 0.000956 | –
[2], x1 = 0.3675 | -0.0478 ± 0.0012 | –
[2], x1 = 0.4473 | -0.0576 ± 0.0012 | –
[2], x1 = 0.5035 | -0.0607 ± 0.00143 | –
[2], x1 = 0.5082 | -0.0609 ± 0.00143 | –
[2], x1 = 0.5746 | -0.0598 ± 0.00143 | –
[2], x1 = 0.6509 | -0.0569 ± 0.0012 | –
[2], x1 = 0.7385 | -0.049 ± 0.0012 | –
[2], x1 = 0.8389 | -0.0344 ± 0.000717 | –
[2], x1 = 0.9272 | -0.0184 ± 0.000478 | –

ClCCCl [1,2-dichloroethane] + CCCOC(C)=O
Conditions | excess molar enthalpy [kcal/mol] | mass density [kg/m3]
[1], x2 = 0.0403 | – | 1224.14 ± 7.6
[1], x2 = 0.0822 | – | 1202.71 ± 6.8
[1], x2 = 0.1258 | – | 1181.25 ± 6.1
[1], x2 = 0.1723 | – | 1159.34 ± 5.4
[1], x2 = 0.2206 | – | 1137.71 ± 4.7
[1], x2 = 0.271 | – | 1116.1 ± 4.1
[1], x2 = 0.323 | – | 1094.66 ± 3.5
[1], x2 = 0.3773 | – | 1073.38 ± 3
[1], x2 = 0.435 | – | 1051.79 ± 2.5
[1], x2 = 0.4925 | – | 1031.26 ± 2
[1], x2 = 0.5542 | – | 1010.09 ± 1.6
[1], x2 = 0.6231 | – | 987.69 ± 1.3
[1], x2 = 0.693 | – | 966.04 ± 0.98
[1], x2 = 0.7654 | – | 944.7 ± 0.73
[1], x2 = 0.8389 | – | 924.07 ± 0.52
[1], x2 = 0.9173 | – | 903.11 ± 0.36
[2], x2 = 0.0472 | -0.0155 ± 0.000478 | –
[2], x2 = 0.1047 | -0.0332 ± 0.000717 | –
[2], x2 = 0.1719 | -0.0559 ± 0.0012 | –
[2], x2 = 0.2424 | -0.0793 ± 0.00167 | –
[2], x2 = 0.3127 | -0.102 ± 0.00215 | –
[2], x2 = 0.3806 | -0.117 ± 0.00263 | –
[2], x2 = 0.4423 | -0.128 ± 0.00287 | –
[2], x2 = 0.5012 | -0.132 ± 0.00287 | –
[2], x2 = 0.5663 | -0.13 ± 0.00287 | –
[2], x2 = 0.6408 | -0.122 ± 0.00263 | –
[2], x2 = 0.7169 | -0.107 ± 0.00239 | –
[2], x2 = 0.8115 | -0.0784 ± 0.00167 | –
[2], x2 = 0.9076 | -0.0447 ± 0.000956 | –

CCCOC=O [propyl methanoate] + ClCCCCCCCl
Conditions | excess molar enthalpy [kcal/mol] | mass density [kg/m3]
[1], x1 = 0.0861 | – | 1054 ± 5.6
[1], x1 = 0.1676 | – | 1044.21 ± 5.1
[1], x1 = 0.2459 | – | 1034.25 ± 4.7
[1], x1 = 0.3157 | – | 1024.9 ± 4.3
[1], x1 = 0.3867 | – | 1014.88 ± 3.9
[1], x1 = 0.4515 | – | 1005.28 ± 3.6
[1], x1 = 0.5124 | – | 995.82 ± 3.3
[1], x1 = 0.6287 | – | 976.43 ± 2.8
[1], x1 = 0.6818 | – | 966.95 ± 2.6
[1], x1 = 0.7826 | – | 947.72 ± 2.2
[1], x1 = 0.8311 | – | 937.83 ± 2.1
[1], x1 = 0.8777 | – | 927.92 ± 1.9
[1], x1 = 0.9609 | – | 909.1 ± 1.7
[1], x1 = 1 | – | 899.81 ± 1.6
[2], x1 = 0.0891 | 0.021 ± 0.000478 | –
[2], x1 = 0.2066 | 0.0373 ± 0.000956 | –
[2], x1 = 0.3241 | 0.049 ± 0.0012 | –
[2], x1 = 0.4164 | 0.0523 ± 0.0012 | –
[2], x1 = 0.4832 | 0.0504 ± 0.0012 | –
[2], x1 = 0.5353 | 0.0473 ± 0.0012 | –
[2], x1 = 0.5847 | 0.0433 ± 0.000956 | –
[2], x1 = 0.6323 | 0.039 ± 0.000956 | –
[2], x1 = 0.6975 | 0.0323 ± 0.000717 | –
[2], x1 = 0.7658 | 0.0249 ± 0.000717 | –
[2], x1 = 0.8389 | 0.0165 ± 0.000478 | –
[2], x1 = 0.9059 | 0.00908 ± 0.000239 | –
[2], x1 = 0.9621 | 0.00382 ± 0.000239 | –

CCCOC=O [propyl methanoate] + ClCCCCCCl
Conditions | mass density [kg/m3]
[1], x1 = 1 | 899.81 ± 1.6

CCCOC(C)=O [propyl ethanoate] + ClCCCCCCCl
Conditions | mass density [kg/m3]
[1], x1 = 1 | 882.08 ± 0.23

CCCOC(=O)CCC [propyl butanoate] + ClCCCCCCl
Conditions | excess molar enthalpy [kcal/mol] | mass density [kg/m3]
[1], x1 = 0.0527 | – | 1081.35 ± 5.8
[1], x1 = 0.1057 | – | 1067.82 ± 5.1
[1], x1 = 0.1578 | – | 1054.69 ± 4.5
[1], x1 = 0.2095 | – | 1041.82 ± 4
[1], x1 = 0.2663 | – | 1027.99 ± 3.5
[1], x1 = 0.3782 | – | 1001.4 ± 2.6
[1], x1 = 0.4944 | – | 974.66 ± 1.8
[1], x1 = 0.6144 | – | 947.96 ± 1.2
[1], x1 = 0.7409 | – | 920.76 ± 0.77
[1], x1 = 0.804 | – | 907.58 ± 0.59
[1], x1 = 0.8678 | – | 894.43 ± 0.45
[1], x1 = 0.9363 | – | 880.61 ± 0.32
[1], x1 = 1 | – | 867.9 ± 0.23
[2], x1 = 0.0559 | -0.00311 ± 0.000239 | –
[2], x1 = 0.1285 | -0.0086 ± 0.000239 | –
[2], x1 = 0.2091 | -0.0167 ± 0.000478 | –
[2], x1 = 0.2908 | -0.0258 ± 0.000717 | –
[2], x1 = 0.3699 | -0.0351 ± 0.000717 | –
[2], x1 = 0.4417 | -0.0449 ± 0.000956 | –
[2], x1 = 0.4998 | -0.0504 ± 0.0012 | –
[2], x1 = 0.553 | -0.0526 ± 0.0012 | –
[2], x1 = 0.5757 | -0.0523 ± 0.0012 | –
[2], x1 = 0.6397 | -0.0497 ± 0.0012 | –
[2], x1 = 0.71 | -0.0445 ± 0.000956 | –
[2], x1 = 0.7828 | -0.0368 ± 0.000956 | –
[2], x1 = 0.8561 | -0.0265 ± 0.000717 | –
[2], x1 = 0.9304 | -0.0146 ± 0.000478 | –

CCCOC(C)=O [propyl ethanoate] + ClCCCCCl
Conditions | mass density [kg/m3]
[1], x1 = 1 | 882.08 ± 0.23

CCCOC(C)=O [propyl ethanoate] + ClCCCl
Conditions | mass density [kg/m3]
[1], x1 = 1 | 882.08 ± 0.23
